Paper PMC9060980 (Evidence-based Complementary and Alternative Medicine : eCAM, 2022)
Several values for one entry are separate records, joined by “and”; a condition that tells them apart may be missing. Equal entries are not always repeated. Where two headings read alike, the source gives them in different places.

Key:
[1] = test system: BCL-2 family proteins' expressions in A549; test: Western blotting of BCL-2 family proteins; type: cell-based, human; details: PTX 50 nM, 24 h
Description: Total cell extracts were lysed in lysis buffer (Ripa, Solarbio, China), and protein extract (60 μg) was added into each well of 10% gel and separated through gel electrophoresis. Gels were soaked in transfer buffer (30 mM glycine, 16 mM Tris-HCl, and 20% methanol) and proteins in the gels were then blotted to polyvinylidene difluoride (PVDF) membranes. Nonfat dry milk in PBST (137 mM NaCl, […], 100 mM Na2HPO4, 20 mM KH2PO4 0.05% tween 20, pH 7.4) was used for blocking nonspecific binding sites. The polyvinylidene difluoride membranes were then incubated with primary antibodies: anti-BCL-2 mAb (1 : 1000), anti-BAK mAB (1 : 2000), anti-MCL-1 pAb (1 : 3000), anti-pMCL-1 mAb (1 : 2000), anti-cyclinB1 mAb (1 : 1000), or anti-b-actin mAb (1 : 5000). Then, secondary antibodies (anti-mouse 1 : 5000, anti-rabbit–1:5000) were applied to the membranes. The ECL western blotting detection kit was used for detecting protein bands in the membranes. Protein bands were detected using the ECL Plus Kit (Huaan biotech, Hangzhou, China), imaged on Tanon 2000. Densitometry analysis was performed using ImageJ software to calculate the relative expression change after normalizing with β-actin.

[2] = Mortality, survival, side effect and body weight of A549 xenograft-bearing mice
Description: (§1) Tumor-bearing mice were weighed using an electronic scale and tumor sizes were surveyed with vernier calipers, and these procedures were conducted twice a week. Tumor weight was calculated from the tumor sizes according to the reported formula [30]: tumor volume (mm^3) = (tumor length in mm) × (tumor width in mm)^2/2. One and a half hours after the last administration on Day 34, all mice were sacrificed after blood was collected from the orbital sockets using fine capillaries. […] The serum was separated and analyzed by method described previously.

A549 tumor = type: in vivo, BALB/c mice; parameters: tumor weight: unit not given beside the values
Description: as §1

A549 cells [3] = test: Flow cytometry with Annexin V/PI staining; type: cell-based, human; details: PTX 50 nM, 24 h
Description: Afterward, they were washed with PBS, counted, and adjusted to 1 × 10^6 cells/ml. Apoptosis of A549 cells was determined by flow cytometry (FC500; Beckman Coulter, Brea, CA, USA) using the Annexin V-fluorescein isothiocyanate (FITC)/propidium iodide (PI) kit (MULTISCIENCES (LIANKE) BIOTECH, CO., LTD, Hangzhou, China). Staining was performed in accordance with the method described in the manufacturer's instructions. The rate of apoptosis was analyzed using MCF software (Beckman Coulter, Brea, CA, USA).

[4] = Plasma concentration of paclitaxel in A549 xenograft mice; type: in vivo; details: BALB/c, mouse, intraperitoneal, 10 mg/kg, plasma concentration of paclitaxel […] after administration, PTX 10 mg/kg I.P., PTX + WAB 10 + 50 mg/kg I.G., Day 34, mean
Description: Tumor-bearing mice were weighed using an electronic scale and tumor sizes were surveyed with vernier calipers, and these procedures were conducted twice a week. Tumor weight was calculated from the tumor sizes according to the reported formula [30]: tumor volume (mm^3) = (tumor length in mm) × (tumor width in mm)^2/2. One and a half hours after the last administration on Day 34, all mice were sacrificed after blood was collected from the orbital sockets using fine capillaries. […] The serum was separated and analyzed by method described previously [7].

P-gp = biological target: T1, P-gp (Homo sapiens, UniProt P08183); test: Permeation of PTX through MDCK–MDR1 cell monolayers; type: in vitro ADME; details: dog, PTX alone or with VRP 100 μM
T1 construct: expressed in transfected cells; host or cells: MDCK-MDR1 (Madin-Darby canine kidney cells transfected with human MDR1)
Description: To evaluate the inhibitory effect of flavonoids or lignoids on P-gp-induced reflux of PTX across the cultured cell monolayer, MDCK–MDR1cells were seeded on to Falcon 24-multiwell insert system at a density of 6 × 10^5 cells/mL. The detailed method is applied as previous research with some modification (such as time points of sampling including 0, 30, 60, 90, 120 min are selected, and C0 of PTX in the apical compartment is 1 μg/mL).
The apical (AP) media volume was 500 μL and the basolateral (BL) volume was 1500 μL.

A549 cells [5] = test: MTT assay in A549; type: cell-based; details: Homo sapiens, 50 nM, 24 h, read-out: inhibition of the proliferation of A549 cells
Description: 100 μL A549 cells (2 × 10^5 cells/mL) were seeded onto a 96-well plate. […] The same volume of complete culture medium served as the negative control. Then, 20 μl MTT solution (5 mg/mL) was added to each well, and the plates were incubated for 4 h. The medium was replaced by 150 μl DMSO, which solubilized the MTT formazan salt. The absorbance of the solution was measured on a microplate reader (Vrioskan Flash, Thermo Scientific, USA) at 490 nm and the results were expressed as a percentage of the control cells.

in vitro = details: human, Caco-2
Description: (§2) The apical (AP) media volume was 500 μL and the basolateral (BL) volume was 1500 μL. […] Verapamil serves as a positive control for this experiment and was added to both compartments prior to initiation. At 30, 60, 90, and 120 min, 100 μL of media was removed from the receiver compartment followed by the addition of 100 μL of preheated buffer as replenishment.

Caco-2 cells = test: Caco-2 bidirectional transport of paclitaxel; details: paclitaxel 1 μg/mL alone or with verapamil 100 μM
Description: as §2

[6] = PTX 10 mg/kg I.P., PTX + WAB 10 + 50 mg/kg I.G.
[7] = PTX 10 mg/kg I.P., PTX + WAB 10 + 50 mg/kg I.G., Day 34

T1 sequence (P08183 whole entry): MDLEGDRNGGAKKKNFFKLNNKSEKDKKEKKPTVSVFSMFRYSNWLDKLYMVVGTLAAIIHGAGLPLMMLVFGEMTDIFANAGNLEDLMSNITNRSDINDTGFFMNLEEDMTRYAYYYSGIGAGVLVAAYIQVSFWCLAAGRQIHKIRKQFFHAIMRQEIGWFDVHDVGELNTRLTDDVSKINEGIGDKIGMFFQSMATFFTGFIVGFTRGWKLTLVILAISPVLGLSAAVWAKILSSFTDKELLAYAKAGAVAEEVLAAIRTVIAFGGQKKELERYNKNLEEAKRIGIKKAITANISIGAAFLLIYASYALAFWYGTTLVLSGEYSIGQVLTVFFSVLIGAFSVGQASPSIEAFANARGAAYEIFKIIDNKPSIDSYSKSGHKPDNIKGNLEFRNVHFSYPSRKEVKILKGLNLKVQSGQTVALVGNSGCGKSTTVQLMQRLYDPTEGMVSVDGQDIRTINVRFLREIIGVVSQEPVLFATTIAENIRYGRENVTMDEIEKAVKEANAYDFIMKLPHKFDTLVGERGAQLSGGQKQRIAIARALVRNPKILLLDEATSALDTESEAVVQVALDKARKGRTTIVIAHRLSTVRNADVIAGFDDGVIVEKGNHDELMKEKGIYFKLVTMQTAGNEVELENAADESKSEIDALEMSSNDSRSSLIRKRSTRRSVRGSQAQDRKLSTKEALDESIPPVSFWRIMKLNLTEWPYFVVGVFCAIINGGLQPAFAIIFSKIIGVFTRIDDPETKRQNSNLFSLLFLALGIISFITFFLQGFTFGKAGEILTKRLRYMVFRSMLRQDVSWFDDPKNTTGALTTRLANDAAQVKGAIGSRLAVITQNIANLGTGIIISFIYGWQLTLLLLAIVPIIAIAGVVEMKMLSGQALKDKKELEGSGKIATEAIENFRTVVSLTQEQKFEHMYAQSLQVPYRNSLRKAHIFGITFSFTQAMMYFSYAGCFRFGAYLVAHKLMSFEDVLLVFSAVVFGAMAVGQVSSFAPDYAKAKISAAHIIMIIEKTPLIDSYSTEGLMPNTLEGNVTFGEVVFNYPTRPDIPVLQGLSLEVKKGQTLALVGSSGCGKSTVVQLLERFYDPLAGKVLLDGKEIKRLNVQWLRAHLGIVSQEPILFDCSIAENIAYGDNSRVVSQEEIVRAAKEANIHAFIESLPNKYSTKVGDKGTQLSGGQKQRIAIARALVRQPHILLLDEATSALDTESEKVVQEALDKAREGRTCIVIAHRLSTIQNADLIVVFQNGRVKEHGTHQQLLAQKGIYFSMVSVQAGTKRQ

Q: Which results are given for CC(=O)O[C@H]1C(=O)[C@@]2(C)[C@H]([C@H](OC(=O)c3ccccc3)[C@]3(O)C[C@H](OC(=O)[C@H](O)[C@@H](NC(=O)c4ccccc4)c4ccccc4)C(C)=C1C3(C)C)[C@]1(OC(C)=O)CO[C@@H]1C[C@@H]2O [Paclitaxel]?
A: expressions of cyclinB1, BAK, BCL-2, MCL-1, and pMCL-1 [1]: significantly upregulated; Survival rate [2, 6]: 66.7%; Mortality (dead mice) [2, 7]: 4; mortality % ([2]; PTX group, PTX+WAB 10+50 mg/kg, Day 34): 33.33%; tumor volume, group mean (A549 tumor; Day 1, PTX 10 mg/kg I.P., PTX+WAB 10+50 mg/kg I.G.): 80.63 mm^3; tumor volume, group mean (A549 tumor; Day 4, PTX 10 mg/kg I.P., PTX+WAB 10+50 mg/kg I.G.): 88.36 mm^3; tumor volume, group mean (A549 tumor; Day 7, PTX 10 mg/kg I.P., PTX+WAB 10+50 mg/kg I.G.): 123.87 mm^3; tumor volume, group mean (A549 tumor; Day 10, PTX 10 mg/kg I.P., PTX+WAB 10+50 mg/kg I.G.): 140.25 mm^3; tumor volume, group mean (A549 tumor; Day 13, PTX 10 mg/kg I.P., PTX+WAB 10+50 mg/kg I.G.): 170.16 mm^3; tumor volume, group mean (A549 tumor; Day 16, PTX 10 mg/kg I.P., PTX+WAB 10+50 mg/kg I.G.): 131.58 mm^3; tumor volume, group mean (A549 tumor; Day 19, PTX 10 mg/kg I.P., PTX+WAB 10+50 mg/kg I.G.): 181.34 mm^3; tumor volume, group mean (A549 tumor; Day 22, PTX 10 mg/kg I.P., PTX+WAB 10+50 mg/kg I.G.): 174.31 mm^3; tumor volume, group mean (A549 tumor; Day 25, PTX 10 mg/kg I.P., PTX+WAB 10+50 mg/kg I.G.): 203.28 mm^3; tumor volume, group mean (A549 tumor; Day 28, PTX 10 mg/kg I.P., PTX+WAB 10+50 mg/kg I.G.): 256.78 mm^3; tumor volume, group mean (A549 tumor; Day 31, PTX 10 mg/kg I.P., PTX+WAB 10+50 mg/kg I.G.): 273.56 mm^3; tumor volume, group mean (A549 tumor; Day 34, PTX 10 mg/kg I.P., PTX+WAB 10+50 mg/kg I.G.): 263.74 mm^3; activity against A549 tumor growth (A549 tumor; [6]): weak inhibitory activity against A549; Inhibition rate (A549 tumor; [7]): 38.60 ± 64.87%; tumor weight (A549 tumor; PTX 10 mg/kg I.P., PTX+WAB 10+50 mg/kg I.G., Day 34, individual animals, listed as PTX): 0.2469 and 0.1592 and 0.156 and 0.1923 and 0.1802 and 0.1183 and 0.1699; Mean (growth factor) (A549 tumor; PTX 10 mg/kg, PTX+WAB 10+50 mg/kg, from tumor size Day 34/Day 1): 13.43; percentage of cells Annexin V positive (A549 cells [3]): approx. 16.3%; apoptosis (A549 cells [3]; with or without HDS-2 80 μg/mL): 17.5%; percentage of cells PI positive (necrosis) (A549 cells [3]; with or without HDS-2 80 μg/mL): approx. 22.8%; concentration at […] [4]: 201 ng/mL; Papp B→A at 120 min, 1 μg/mL (P-gp): 86.4 ± 14.1 ×10⁻⁶ cm/s; inhibition at 0.05 µM (A549 cells [5]): ~28%; Papp A→B at 120 min, 1 μg/mL (in vitro): 0.252 ×10⁻⁶ cm/s; Papp B→A at 120 min, 1 μg/mL (in vitro): 75.3 ×10⁻⁶ cm/s; Papp AP–BL of paclitaxel (Caco-2 cells): 0.25 ± 0.43 ×10^−6 cm/s; Papp BL–AP of paclitaxel (Caco-2 cells): 75.26 ± 7.43 ×10^−6 cm/s
